Laboratory results from patent publication US7807711B2, “Medicinal acidic cannabinoids” (priority 2004, dated 2010).
Where two headings read alike, the source gives them in different places.

How the values were obtained:
[1] = system: mRNA coding for interleukin-10 (IL-10); test: IL-10 mRNA level (RT-PCR) in PHA-stimulated PBMC; assay type: cell-based; details: PBMC stimulated by PHA, incubation 4 days; relative to β-actine
[2] = system: Experimental Autoimmune Encephalomyelitis; test: Mouse model for Experimental Autoimmune Encephalomyelitis; assay type: in vivo; details: SJL mice, day 0-20
Description: The effect of purified THC-acid and unheated cannabis extracts were tested in vivo in a mouse model for Experimental Autoimmune Encephalomyelitis.
Between day 0 and day 20 after onset of the disease the mice were treated daily with a specified oral dose of THC-acid or unheated extract according to the following scheme:
Group 1: vehicle (0.2 mL olive oil/day);
Group 2: 1 mg purified THC-acid in 0.2 mL olive oil/day;
Group 3: unheated cannabis extract in 0.2 mL olive oil containing 1 mg THC-acid/day.
1: mild perivascular accumulation
2: mild perivascular accumulation, multi-focal
3: perivascular accumulation, multiple cell layers, multi-focal.

[3] = system: mRNA coding for TNF-alpha; test: TNF-alpha mRNA level (RT-PCR) in PHA-stimulated PBMC; assay type: cell-based; details: PBMC stimulated by PHA, incubation 4 days; relative to β-actine
recombinant human CB1 = biological target: T1, recombinant human CB1 (Homo sapiens, UniProt P21554); test: biochemical; assay type: binding
T1 construct: expressed in transfected cells; host or cells: Sf9 cells
T1 sequence (P21554 whole entry): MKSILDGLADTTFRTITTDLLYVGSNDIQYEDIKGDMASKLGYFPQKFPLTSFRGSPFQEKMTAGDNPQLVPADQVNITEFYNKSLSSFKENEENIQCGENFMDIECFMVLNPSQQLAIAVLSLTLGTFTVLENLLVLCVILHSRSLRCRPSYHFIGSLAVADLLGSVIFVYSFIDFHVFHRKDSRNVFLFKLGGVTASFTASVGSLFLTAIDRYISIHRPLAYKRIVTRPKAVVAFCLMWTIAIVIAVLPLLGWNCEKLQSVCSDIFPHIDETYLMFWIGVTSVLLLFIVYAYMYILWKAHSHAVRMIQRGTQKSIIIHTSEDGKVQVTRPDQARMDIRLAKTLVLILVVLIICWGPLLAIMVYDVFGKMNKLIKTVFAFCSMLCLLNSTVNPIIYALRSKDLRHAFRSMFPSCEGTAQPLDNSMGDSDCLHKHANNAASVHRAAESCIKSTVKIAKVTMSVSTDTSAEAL

recombinant human CB2 = biological target: T2, recombinant human CB2 (Homo sapiens, UniProt P34972); test: Competitive receptor binding against tritium labelled CP55,940, CB2
T2 construct: expressed in transfected cells; host or cells: Sf9 cells
T2 sequence (P34972 whole entry): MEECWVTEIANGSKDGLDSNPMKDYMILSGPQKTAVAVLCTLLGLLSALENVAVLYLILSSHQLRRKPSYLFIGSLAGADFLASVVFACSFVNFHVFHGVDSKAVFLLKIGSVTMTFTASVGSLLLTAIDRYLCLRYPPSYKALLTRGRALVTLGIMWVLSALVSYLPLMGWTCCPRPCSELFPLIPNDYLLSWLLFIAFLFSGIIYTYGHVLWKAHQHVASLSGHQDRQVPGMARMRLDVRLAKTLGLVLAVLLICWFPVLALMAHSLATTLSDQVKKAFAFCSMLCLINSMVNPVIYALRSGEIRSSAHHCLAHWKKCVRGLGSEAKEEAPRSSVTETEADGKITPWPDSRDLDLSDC

CCCCCc1cc2c(c(O)c1C(=O)O)C1C=C(C)CCC1C(C)(C)O2 (centres unmarked) [THC-A, Δ^9-tetrahydrocannabinolic acid]
level of the anti-inflammatory cytokine IL-10 (mRNA) [1]: increase | number of inflammatory cells in the brain stem compared to vehicle ([2]; 1 mg THC-acid/day oral in olive oil, sacrificed after 42 days): reduced the number of inflammatory cells in the brain stem significantly | clinical score ([2]; 1 mg THC-acid/day oral, FIG. 4): improved the clinical score significantly | level of the pro-inflammatory cytokine TNFα (mRNA) [3]: decrease | Kd (recombinant human CB1; purified components, Sf9 cells, read-out: Kd CB1): > 1000 nM | Kd (recombinant human CB2; purified components, Sf9 cells, read-out: Kd CB2): > 1000 nM

CCCCCc1cc(O)c2c(c1)OC(C)(C)c1ccc(C)cc1-2 [CBN*, cannabinol, reference compound]
Kd (recombinant human CB1): 36 nM | Kd (recombinant human CB2): 17 nM
